Source: US20230167058A1, “GPX4 COMPOUNDS AND COMPOSITIONS AND METHODS OF TREATMENT USING SAME” (THE TRUSTEES OF COLUMBIA UNIVERSITY IN THE CITY OF NEW YORK, priority 2020, published 2023)

Experiments:
[1] = target: T1, cellular GPX4 in HT1080 cell lysate (Homo sapiens, UniProt P36969); assay: NADPH-coupled cellular GPX4-specific activity, HT1080 cell lysate; type: biochemical; settings: 500 μM LOC1886 added to lysate
T1 construct: endogenous in cells; host or cells: HT-1080 (ATCC), whole-cell lysate
T1 sequence (P36969 1-197): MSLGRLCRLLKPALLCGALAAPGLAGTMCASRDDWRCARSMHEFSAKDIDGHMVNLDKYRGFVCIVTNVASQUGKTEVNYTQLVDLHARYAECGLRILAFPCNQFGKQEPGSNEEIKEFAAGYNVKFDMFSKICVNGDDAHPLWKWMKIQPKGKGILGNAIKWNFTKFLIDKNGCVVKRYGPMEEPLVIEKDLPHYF
Protocol: We applied a NADPH-coupled cellular GPX4 enzymatic activity assay as previously reported with minor modifications (Roveri et al. 1994). Oxidized glutathione, generated by GPX4 during reducing its specific phospholipid hydroperoxides substrate, was reduced by Glutathione Reductase at the expense of NADPH, the decrease in the characteristic absorbance of which at 340 nm was monitored and quantified as GPX4 activity. […] The concentration of protein in the lysate was determined using BCA assay kit using BSA as standards. […] Absorbance of NADPH at 340 nm was determined kinetically at 1 min interval over the 20 min time. […] Results were quantified using GraphPad Prism 9.
We applied a NADPH-coupled cellular GPX4 enzymatic activity assay as previously reported (Roveri et al. 1994). Oxidized glutathione, generated by GPX4 during reducing its specific phospholipid hydroperoxides substrate, was reduced by Glutathione Reductase at the expense of NADPH, the decrease in the characteristic absorbance of which at 340 nm was monitored and quantified as GPX4 activity. […] The concentration of protein in the lysate was determined using BCA assay kit using BSA as standards. […]

GPX4^U46C = target: T2, GPX4^U46C (Homo sapiens, UniProt P36969, U73C); assay: Inhibition of the activity of purified GPX4^U46C protein (NADPH-coupled); type: biochemical; settings: 20 μM RSL3 vs DMSO
T2 construct: His6 (N, cleaved yes); made in house; host or cells: E. coli BL21-Gold (DE3), M9 minimal medium with 15NH4Cl
T2 sequence (P36969 33-197 U73C): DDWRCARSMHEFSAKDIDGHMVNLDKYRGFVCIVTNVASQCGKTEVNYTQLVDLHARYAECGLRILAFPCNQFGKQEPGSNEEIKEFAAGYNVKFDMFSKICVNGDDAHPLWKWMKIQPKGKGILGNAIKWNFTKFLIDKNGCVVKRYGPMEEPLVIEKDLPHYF
Protocol: Similar to the determination of cellular GPX4-specific activity, by coupling the oxidation of NADPH to NADP+ by oxidized glutathione produced by GPX4 in the presence of glutathione reductase, GPX4^U46C activity was assessed by measuring the decrease in NADPH (absorbance at 340 nm). GPX4 reaction buffer was prepared by adding 0.05 U/mL glutathione reductase, 210 μM GSH, 250 μM NADPH, 50 μM Cumene-OOH into 50 mM Tris HCl, pH 8.0, 0.5 mM EDTA. 15 μM His-tagged-GPX4^U46C pre-incubated with DMSO (vehicle) or 20 μM RSL3 was added to the GPX4 reaction buffer and the absorbance at 340 nm was monitored for the following 10 min. Results were quantified using GraphPad Prism 9.

cancer cells = settings: cited from earlier work

SMILES: COc1cccc2[nH]c(C(=O)n3ccnc3)cc12 [LOC1886]
- capability of cellular GPX4 to reduce phospholipid hydroperoxides [1]: inhibited the capability of cellular GPX4

SMILES: COC(=O)c1ccc([C@@H]2c3[nH]c4ccccc4c3C[C@@H](C(=O)OC)N2C(=O)CCl)cc1 [RSL3, (1S, 3R)-RSL3]
- enzymatic activity of GPX4^U46C after incubation (GPX4^U46C): inhibited the capability of GPX4 to reduce phospholipid hydroperoxides
- potency to induce ferroptosis (cancer cells): nanomolar potencies
